Source: ChEMBL document CHEMBL5143516, “Design, synthesis, and biological evaluation of N-(3-cyano-1H-indol-5/6-yl)-6-oxo-1,6-dihydropyrimidine-4-carboxamides and 5-(6-oxo-1,6-dihydropyrimidin-2-yl)-1H-indole-3-carbonitriles as novel xanthine oxidase inhibitors” (Eur J Med Chem, 2022)
Activity calls are given as the source filed them. No cut-off for these calls is given here.

Biological target: Xanthine dehydrogenase/oxidase (Homo sapiens, UniProt P47989)
Test: Inhibition of xanthine oxidase (unknown origin) using xanthine as substrate incubated for 15 mins followed by substrate addition by spectrophotometric analysis

Xanthine dehydrogenase/oxidase, sequence (P47989 whole entry): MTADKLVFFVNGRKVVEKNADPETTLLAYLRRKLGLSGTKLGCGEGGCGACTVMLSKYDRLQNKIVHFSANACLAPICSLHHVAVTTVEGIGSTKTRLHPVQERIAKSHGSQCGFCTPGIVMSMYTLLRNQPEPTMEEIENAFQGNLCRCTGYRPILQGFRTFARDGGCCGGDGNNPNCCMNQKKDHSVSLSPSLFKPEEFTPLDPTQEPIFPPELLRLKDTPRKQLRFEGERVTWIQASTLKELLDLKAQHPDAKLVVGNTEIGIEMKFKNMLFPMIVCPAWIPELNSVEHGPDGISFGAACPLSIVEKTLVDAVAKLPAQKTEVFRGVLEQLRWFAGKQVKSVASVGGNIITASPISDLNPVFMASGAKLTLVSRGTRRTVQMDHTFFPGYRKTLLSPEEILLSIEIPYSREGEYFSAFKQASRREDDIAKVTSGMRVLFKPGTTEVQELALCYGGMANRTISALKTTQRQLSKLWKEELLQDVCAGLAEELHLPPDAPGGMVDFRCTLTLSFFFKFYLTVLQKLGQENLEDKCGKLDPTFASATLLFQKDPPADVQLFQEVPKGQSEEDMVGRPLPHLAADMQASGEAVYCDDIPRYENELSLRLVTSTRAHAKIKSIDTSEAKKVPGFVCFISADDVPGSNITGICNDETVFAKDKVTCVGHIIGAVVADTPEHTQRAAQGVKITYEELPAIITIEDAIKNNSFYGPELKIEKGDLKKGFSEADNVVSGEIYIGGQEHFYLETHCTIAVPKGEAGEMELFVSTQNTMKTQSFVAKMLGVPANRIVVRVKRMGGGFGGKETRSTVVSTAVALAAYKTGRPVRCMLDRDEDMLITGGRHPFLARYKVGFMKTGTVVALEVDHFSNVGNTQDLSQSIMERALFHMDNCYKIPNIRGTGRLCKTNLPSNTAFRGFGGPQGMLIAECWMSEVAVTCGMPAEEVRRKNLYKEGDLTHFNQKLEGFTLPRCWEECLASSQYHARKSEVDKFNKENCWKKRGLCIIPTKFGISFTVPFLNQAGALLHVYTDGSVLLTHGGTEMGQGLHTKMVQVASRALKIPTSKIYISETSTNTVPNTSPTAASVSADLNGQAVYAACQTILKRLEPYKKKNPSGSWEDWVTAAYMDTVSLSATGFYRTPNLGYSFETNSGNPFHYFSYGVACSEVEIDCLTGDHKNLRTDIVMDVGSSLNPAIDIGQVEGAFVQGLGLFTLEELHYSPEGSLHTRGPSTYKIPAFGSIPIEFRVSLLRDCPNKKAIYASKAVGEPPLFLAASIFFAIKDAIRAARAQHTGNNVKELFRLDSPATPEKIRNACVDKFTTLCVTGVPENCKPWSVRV

`COc1ccnc(-c2ccc3c(c2)c(C#N)cn3C(C)C)n1` was tested. Which IC50 did it give?
The IC50 was greater than 10 µM.

`N#Cc1cn(C2CCCC2)c2cc(NC(=O)c3cc(=O)[nH]cn3)ccc12` was tested. Which IC50 did it give?
Its IC50 is greater than 10 µM.

`CC(C)(C)c1ccc(Cn2cc(C#N)c3cc(NC(=O)c4cc(=O)[nH]cn4)ccc32)cc1` was tested. Which IC50 did it give?
Its IC50 is greater than 10 µM.

With `CC(C)n1cc(C#N)c2ccc(NC(=O)c3cc(=O)[nH]cn3)cc21` as the compound, how does the IC50 read?
Its IC50 is greater than 10 µM.

For `CC(C)=CCn1cc(C#N)c2ccc(NC(=O)c3cc(=O)[nH]cn3)cc21`, which IC50 is on record?
The IC50 was greater than 10 µM.

For `CC(C)Cn1cc(C#N)c2ccc(NC(=O)c3cc(=O)[nH]cn3)cc21`, which IC50 is on record?
The IC50 was greater than 10 µM.

How did the IC50 turn out when `Cc1nc(C(=O)Nc2ccc3c(C#N)cn(C4CCCC4)c3c2)cc(=O)[nH]1` was run?
The IC50 was greater than 10 µM.

For `Cc1nc(-c2ccc(OCC(C)C)c(C#N)c2)sc1C(=O)O` [FEBUXOSTAT], which IC50 is on record?
Its IC50 is 0.023 µM.

How did the IC50 turn out when `C=CCn1cc(C#N)c2ccc(NC(=O)c3cc(=O)[nH]cn3)cc21` was run?
Its IC50 is greater than 10 µM.

`N#Cc1cn(CC2CC2)c2cc(NC(=O)c3cc(=O)[nH]cn3)ccc12` was tested. Which IC50 did it give?
The IC50 was greater than 10 µM.

Tested on: Rattus norvegicus
Test: Anti-hyperuricemic activity against potassium oxonate-induced acute hyperuricemia Sprague-Dawley rat model assessed as reduction in serum uric acid level at 10 mg/kg, po pretreated with potassium oxonate for 1 hr followed by compound treatment and measured after 8 hrs
Type: functional, organism-based

For `CC(C)n1cc(C#N)c2cc(-c3nccc(O)n3)ccc21`, which Activity is on record?
Its Activity is “Active”.

How did the Activity turn out when `Oc1ncnc2[nH]ncc12` was run?
Its Activity is “Active”.

For `N#Cc1cn(C2CCCC2)c2ccc(NC(=O)c3cc(=O)[nH]cn3)cc12`, which Activity is on record?
The Activity was “Active”.

For `Cc1nc(-c2ccc(OCC(C)C)c(C#N)c2)sc1C(=O)O` [FEBUXOSTAT], which Activity is on record?
Its Activity is “Active”.
